One series has as its system BV-2. Nature of the series: Antiinflammatory activity in mouse BV-2 cells assessed as inhibition of LPS-induced NO production at 10 uM preincubated for 1 hrs followed by LPS stimulation and measured after 24 hrs by Griess assay. It counts as functional. As to conditions: time 25 hrs. In general terms: Nitrite, measured by Griess reagent, commonly stands in for NO production.

For series [1], the system named is RAW264.7. Description: Antiinflammatory activity in mouse RAW264.7 cells assessed as inhibition of KLA-induced TNFalpha expression at 0.06 mg/ml and measured after 24 hrs by ELISA. It counts as functional. Background: ELISA stands for enzyme-linked immunosorbent assay.
Series [2] can be described thus: Inhibition of COX in bovine seminal vesicle assessed as reduction in PGE2 production using arachidonic acid as substrate. Format: tissue-based, Bos taurus.
Series [3] can be described thus: Cytotoxicity against mouse RAW264.7 cells assessed as reduction in cell viability by MTT assay. Format: toxicity, cell-based.
Series [4] deals with RAW264.7. Nature of the series: Antiinflammatory activity in mouse RAW264.7 cells assessed as inhibition of LPS-induced NO production preincubated for 0.5 hrs followed by LPS stimulation and measured after 24 hrs by Griess reagent based analysis. Format: functional, cell-based.
The test system of series [5] is J774.1. Description: Cytotoxicity in mouse J774.1 cells assessed as reduction in cell viability at 100 microg/ml. Format: toxicity, cell-based. Particulars: at 100 µg/mL.
In series [6] the test system is J774.1. Nature of the series: Antiinflammatory activity in mouse J774.1 cells assessed as inhibition of LPS-induced NO production incubated for 48 hrs by Griess reagent based analysis. Format: functional, cell-based. As to conditions: Mus musculus, J774.1, 48 h.
For series [7], the system named is J774.1. Nature of the series: Antiinflammatory activity in mouse J774.1 cells assessed as inhibition of LPS-induced NO production at 100 microg/ml. It counts as functional.
The test system of series [8] is RAW264.7. Nature of the series: Antiinflammatory activity in mouse RAW264.7 cells assessed as inhibition of LPS-induced NO production at 30 uM preincubated for 0.5 hrs followed by LPS stimulation and measured after 24 hrs by Griess reagent based analysis. It counts as functional. As to conditions: time 24.5 hrs.
In another series the test system is Zingiber officinale. Nature of the series: Inhibition of prostaglandin biosynthesis in ginger. Format: functional, organism-based.
The subject of series [9] is Mus musculus. Nature of the series: Antiinflammatory activity in ICR mouse model of TPA-induced ear edema assessed as inhibition of ear inflammation at 1 mg,TOP for 30 mins followed by TPA addition and measured after 6 hrs. Particulars: time 390 min, 6.5 h. Format: functional.
Series [10] concerns Mus musculus. Nature of the series: Antiinflammatory activity in TPA-induced ear edema ICR mouse model assessed as inhibition of ear inflammation at 1 ug, TOP for 30 mins followed by TPA addition and measured after 6 hrs. Format: functional. Particulars: dose 1 µg, time 390 min, 6.5 h.
The test system of series [11] is RAW264.7. Description: Antiinflammatory activity in mouse RAW264.7 cells assessed as inhibition of LPS-induced NO production for 24 hrs by Griess assay. Format: functional, cell-based. As to conditions: RAW264.7, 24 h.
Series [12] deals with RAW264.7. Nature of the series: Antiinflammatory activity against mouse RAW264.7 cells assessed as inhibition of IFN-gamma and LPS-induced COX2 production preincubated for 2 hrs followed by IFN-gamma and LPS stimulation and measured after 16 hrs by spectrophotometric analysis. Format: functional, cell-based.
Series [13] has as its system RAW264.7. Description: Antiinflammatory activity in mouse RAW264.7 cells assessed as inhibition of LPS-induced NO production. It counts as functional, cell-based.
The subject of series [14] is Rattus norvegicus. Description: Antiinflammatory activity in rat model of carrageenan-induced paw edema assessed as reduction in paw thickness at 10 mg/kg,ip and measured after 4 hrs. It counts as functional. Also noted: scale not given: the % may be the effect or the level left. Background: The carrageenan paw model is a standard test of acute inflammation.
The subject of series [15] is Rattus norvegicus. Description: Antiinflammatory activity in rat model of carrageenan-induced hind paw edema assessed as reduction in paw thickness at 100 mg/kg,ip 30mins before carrageenin exposure and measured after 3 hrs. Format: functional. Set-up: scale not given: the % may be the effect or the level left.
The test system of series [16] is Rattus norvegicus. Nature of the series: Antiinflammatory activity in rat model of ethyl phenylpropiolate-induced ear edema assessed as reduction in ear thickness administered topically and measured after 30 mins. Format: functional. As to conditions: 0.5 h.
Series [17] relates to RAW264.7. Description: Antiinflammatory activity in mouse RAW264.7 cells assessed as inhibition of LPS-induced NO production at 30 uM preincubated for 2 hrs followed by LPS stimulation and measured after 24 hrs by Griess method. It counts as functional. Particulars: time 26 hrs.
The test system of series [18] is RAW264.7. Description: Antiinflammatory activity in mouse RAW264.7 cells assessed as inhibition of LPS-induced TNFalpha production at 10 uM preincubated for 2 hrs followed by LPS stimulation and measured after 24 hrs by ELISA. Format: functional. Particulars: time 26 hrs.
The test system of series [19] is RAW264.7. Nature of the series: Antiinflammatory activity in mouse RAW264.7 cells assessed as inhibition of LPS-induced NO production at 10 uM preincubated for 2 hrs followed by LPS stimulation and measured after 24 hrs by Griess method. Format: functional. Particulars: time 26 hrs.
The test system of series [20] is RAW264.7. Nature of the series: Antiinflammatory activity in mouse RAW264.7 cells assessed as inhibition of LPS-induced TNFalpha production at 100 uM preincubated for 2 hrs followed by LPS stimulation and measured after 24 hrs by ELISA. It counts as functional. Particulars: time 26 hrs.
Series [21] has as its system RAW264.7. Description: Antiinflammatory activity in mouse RAW264.7 cells assessed as inhibition of LPS-induced TNFalpha production at 3 uM preincubated for 2 hrs followed by LPS stimulation and measured after 24 hrs by ELISA. It counts as functional. As to conditions: time 26 hrs.
For series [22], the system named is RAW264.7. Nature of the series: Antiinflammatory activity in mouse RAW264.7 cells assessed as inhibition of LPS-induced IL-6 production at 10 uM preincubated for 2 hrs followed by LPS stimulation and measured after 24 hrs by ELISA. Format: functional. Particulars: time 26 hrs.
Series [23] has as its system RAW264.7. Nature of the series: Antiinflammatory activity in mouse RAW264.7 cells assessed as inhibition of LPS-induced IL-6 production at 100 uM preincubated for 2 hrs followed by LPS stimulation and measured after 24 hrs by ELISA. It counts as functional. As to conditions: time 26 hrs.
The subject of series [24] is RAW264.7. Nature of the series: Antiinflammatory activity in mouse RAW264.7 cells assessed as inhibition of LPS-induced NO production at 3 uM preincubated for 2 hrs followed by LPS stimulation and measured after 24 hrs by Griess method. As to conditions: time 26 hrs. It counts as functional.
Series [25] concerns RAW264.7. Nature of the series: Antiinflammatory activity in mouse RAW264.7 cells assessed as inhibition of LPS-induced IL-6 production at 30 uM preincubated for 2 hrs followed by LPS stimulation and measured after 24 hrs by ELISA. Format: functional. Particulars: time 26 hrs.
Series [26] has as its system RAW264.7. Description: Antiinflammatory activity in mouse RAW264.7 cells assessed as inhibition of LPS-induced NO production at 100 uM preincubated for 2 hrs followed by LPS stimulation and measured after 24 hrs by Griess method. As to conditions: time 26 hrs. It counts as functional.
Series [27] relates to RAW264.7. Description: Antiinflammatory activity in mouse RAW264.7 cells assessed as inhibition of LPS-induced IL-6 production at 3 uM preincubated for 2 hrs followed by LPS stimulation and measured after 24 hrs by ELISA. It counts as functional. Particulars: time 26 hrs.
The subject of series [28] is RAW264.7. Nature of the series: Antiinflammatory activity in mouse RAW264.7 cells assessed as inhibition of LPS-induced TNFalpha production at 30 uM preincubated for 2 hrs followed by LPS stimulation and measured after 24 hrs by ELISA. It counts as functional. Particulars: time 26 hrs.

Structures are written as SMILES. ≈ marks a conversion by molar mass, not a printed value.

As usually defined, the inhibition is the relative decrease from the control value, in per cent. Consider `Oc1ccc(CC[C@@H](O)C[C@@H](O)CCc2ccc(O)cc2)cc1`, for which the inhibition at 10 µM in the series on BV-2 stood at 65.2%.
With `O=C(CCc1ccccc1)C[C@@H](O)/C=C/c1ccccc1`, in the series with RAW264.7 [1], the inhibition at 60 µg/mL came out at 37%.
For orientation: IC50 means the concentration that inhibits the measured activity by half. For `O=C1CCN(c2ccccc2)N1` [PHENIDONE], the IC50 in series [2] stood at 11.8 µM.
On to `O=C(/C=C/c1ccc(O)c(O)c1)CC/C=C/c1ccc(O)c(O)c1`, for which the values for the IC50 (in [3]; in the series on RAW264.7 [4]) were 9 µM and 2.9 µM, respectively.
Turning to `COC(=O)[C@@H](N)CCCNC(=N)N[N+](=O)[O-]` [L-NAME], in the series with BV-2, the inhibition at 10 µM is 70.5%.
As to `COc1cc(O)c([C@H](/C=C/C[C@@H](O)CCc2ccc(O)cc2)c2ccc(O)cc2)c2oc(-c3ccc(O)cc3)cc(=O)c12` (stereo in doubt; 110), the Activity with J774.1 [5] came out at 85%. Further, the half-maximal inhibitory concentration (IC50) in the series on J774.1 [6] stood at 84 µM. Also, the inhibition at 100 µg/mL in the series with J774.1 [7] was determined as 90%.
On to `OC[C@H]1O[C@@H](O[C@H](CCCCc2ccc(O)c(O)c2)CCc2ccc(O)cc2)[C@H](O)[C@@H](O)[C@@H]1O`, for which the inhibition at 30 µM in the series with RAW264.7 [8] turned out to be 11%.
Take `COc1ccc2c(c1)c(CC(=O)O)c(C)n2C(=O)c1ccc(Cl)cc1` [INDOMETHACIN]: the IC50 with Zingiber officinale was found to be 4.9 µM; in the series on RAW264.7 [11] it was 32.3 µM; with RAW264.7 [12], 26.2 µg/mL (≈ 73.2 µM); in the series with RAW264.7 [13] it was 26.3 µM. The ID50 in the series on Mus musculus [9] was found to be 0.3 mg; with Mus musculus [10], 0.9 µmol. Also, the Activity in the series on Rattus norvegicus [14] was found to be 55.2%.
As for `O=C(/C=C/C=C/c1ccccc1)CCc1ccccc1`, the Activity in the series on Rattus norvegicus [15] was found to be 44%. Also, the ID50 in the series with Rattus norvegicus [16] was determined as 63 µg.
On to `COc1cc(O)c([C@H](/C=C/C[C@@H](O)CCc2ccc(O)cc2)c2ccc(O)cc2)c(O)c1C(=O)/C=C/c1ccc(O)cc1`, for which the Activity in the series on J774.1 [5] was found to be 85%. For the same molecule, the IC50 in the series on J774.1 [6] amounted to 84 µM. The inhibition at 100 µg/mL in the series with J774.1 [7] was 90%.
On to `NC1=NN(c2cccc(C(F)(F)F)c2)CC1` [BW-755C], for which the 50% inhibitory concentration (IC50) in [2] worked out at 32 µM.
For `COc1cc(CC[C@H](O)C[C@H](O)[C@@H](O)Cc2ccc(O)c(OC)c2)ccc1O`, the inhibition at 30 µM in the series on RAW264.7 [17] was 39%; in the series on RAW264.7 [25], 43%; in the series with RAW264.7 [28], 34%. Further, the inhibition at 10 µM in the series on RAW264.7 [18] amounted to 34%; with RAW264.7 [19], 39%; in the series with RAW264.7 [22], 43%. In addition, the inhibition at 100 µM amounted to 34% with RAW264.7 [20], 43% with RAW264.7 [23] and 39% with RAW264.7 [26]. Moreover, the results for the inhibition at 3 µM with RAW264.7 [21], in the series on RAW264.7 [24] and with RAW264.7 [27] were 34%, 39% and 43%, respectively.

(Values after ChEMBL document CHEMBL5233262, “Anti-inflammatory activity of naturally occuring diarylheptanoids - A review” (Bioorg Med Chem, 2021).)
